By Kd is commonly meant a measure of binding affinity in units of concentration. A high value points to lower affinity.

T1 sequence (Q8XR79 1-222): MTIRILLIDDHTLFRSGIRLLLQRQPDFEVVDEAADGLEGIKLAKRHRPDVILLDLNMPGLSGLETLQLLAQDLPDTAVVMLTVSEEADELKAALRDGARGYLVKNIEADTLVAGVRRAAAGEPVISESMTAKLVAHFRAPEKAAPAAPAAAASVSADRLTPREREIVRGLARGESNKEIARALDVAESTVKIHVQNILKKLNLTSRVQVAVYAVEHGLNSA

This experiment has as its target T1, RSp0980 (Ralstonia pseudosolanacearum, UniProt Q8XR79).
T1 construct: gene narL
Briefly: biochemical.
In turn, `Nc1nc2c(ncn2[C@@H]2O[C@@H]3CO[P@](=O)(O)O[C@H]4[C@@H](O)[C@H](n5cnc6c(=O)[nH]c(N)nc65)O[C@@H]4CO[P@](=O)(O)O[C@H]3[C@H]2O)c(=O)[nH]1` [bis-3′,5′-c-di-GMP] had a Kd of 130.4 ± 1.3 µM. The result for `Nc1nc2c(ncn2[C@@H]2O[C@@H]3COP(=O)(O)O[C@@H]4[C@H](O)[C@@H](COP(=O)(O)O[C@H]3[C@H]2O)O[C@H]4n2cnc3c(=O)[nH]c(N)nc32)c(=O)[nH]1` [2′,3′-c-di-GMP] reads 126 ± 1.12 µM.

Consider `Nc1ncnc2c1ncn2[C@@H]1O[C@H](CO)[C@H]2OP(=O)(O)O[C@H]21` [2′,3′-cAMP], for which the dissociation constant Kd was 82 ± 0.93 µM.

These data come from PMC10667535 (Nature Communications, 2023).
